ChEMBL document CHEMBL1141099, “Discovery of N-(2,6-dimethylphenyl)-substituted semicarbazones as anticonvulsants: hybrid pharmacophore-based design” (2005)

Tests used:
[1] = tested on: Rattus norvegicus; assay: Effective dose required for anticonvulsant activity when given i.p., at 2 hr in rat upon maximal electroshock seizure; format: functional; conditions: ip
[2] = tested on: Mus musculus; assay: Minimum dose required for anticonvulsant activity when given i.p., at 0.5 hr in mice upon subcutaneous strychnine seizure; format: functional
[3] = tested on: Mus musculus; assay: Post treatment immobility time for CNS study using Porsolt's swimpool test at a dose of 100 mg/Kg after 1 hr when given i.p., in mice (No. of animals 6); Control (24h before) 182
[4] = tested on: Rattus norvegicus; assay: Number of rats protected at a dose of 30 mg/Kg when given oral at 1 hr upon maximal electroshock seizure; Total number of rats = 4; format: functional
[5] = tested on: Rattus norvegicus; assay: Number of rats protected at a dose of 30 mg/Kg when given oral at 0.25 hr upon maximal electroshock seizure; Total number of rats = 4; format: functional
[6] = tested on: Mus musculus; assay: Minimum dose required for anticonvulsant activity when given i.p., at 0.5 hr in mice upon maximal electroshock seizure; format: functional
[7] = tested on: Mus musculus; assay: Minimum dose required for anticonvulsant activity when given i.p., at 0.5 hr in mice upon neurotoxicity seizure using rotarod test; format: functional
[8] = species: Rattus norvegicus; assay: Ex vitro percentage inhibition activity against GABA-T enzyme at a concentration of 1.25 uM after 3 h; format: functional
[9] = tested on: Mus musculus; assay: Post treatment activity score for CNS study using a actophotometer at a dose of 100 mg/Kg after 0.5 hr when given i.p., in mice (No. of animals 6); Control (24h before) 245
[10] = tested on: Mus musculus; assay: Post treatment activity score for CNS study using a actophotometer at a dose of 100 mg/Kg after 1 hr when given i.p., in mice (No. of animals 6); Control (24h before) 245
[11] = tested on: Rattus norvegicus; assay: Effect on GABA level in rat whole brain concentration after 2 hr post-treatment at a dose of 100 mg/Kg when given i.p.; Control 48.4; format: functional
[12] = species: Rattus norvegicus; assay: Protective index between effective dose and toxic dose in rat; format: functional
[13] = species: Rattus norvegicus; assay: Ex vitro percentage inhibition activity against GABA-T enzyme at a concentration of 1.25 uM after 6 h; format: functional
[14] = tested on: Rattus norvegicus; assay: Toxic dose observed for anticonvulsant activity when given i.p., at 2 hr in rat upon neurotoxicity seizure; format: functional; conditions: ip
[15] = tested on: Rattus norvegicus; assay: Number of rats protected at a dose of 30 mg/Kg when given oral at 0.5 hr upon maximal electroshock seizure; Total number of rats = 4; format: functional
[16] = biological target: 4-aminobutyrate aminotransferase, mitochondrial (Rattus norvegicus) (UniProt P50554); assay: In vitro percentage inhibition activity against GABA-T enzyme at a concentration of 0.625 uM after 4.5 h
Chain of 4-aminobutyrate aminotransferase, mitochondrial (Rattus norvegicus) (P50554 28-500 limits assumed): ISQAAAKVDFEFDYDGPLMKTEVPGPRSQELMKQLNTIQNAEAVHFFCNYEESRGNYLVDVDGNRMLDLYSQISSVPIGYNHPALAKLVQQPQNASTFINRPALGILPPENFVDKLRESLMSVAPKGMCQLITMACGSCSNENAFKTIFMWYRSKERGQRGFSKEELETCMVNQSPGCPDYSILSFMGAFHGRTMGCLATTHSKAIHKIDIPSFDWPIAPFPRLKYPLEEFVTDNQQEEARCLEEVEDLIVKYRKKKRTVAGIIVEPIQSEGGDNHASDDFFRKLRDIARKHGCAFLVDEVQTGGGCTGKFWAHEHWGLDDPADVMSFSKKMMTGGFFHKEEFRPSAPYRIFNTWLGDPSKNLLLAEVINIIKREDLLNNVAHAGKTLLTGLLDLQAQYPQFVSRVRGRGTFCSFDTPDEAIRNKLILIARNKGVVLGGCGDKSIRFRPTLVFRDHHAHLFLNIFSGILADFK

[17] = tested on: Mus musculus; assay: Minimum dose required for anticonvulsant activity when given i.p., at 4 hr in mice upon maximal electroshock seizure; format: functional
[18] = tested on: Rattus norvegicus; assay: Effect on GABA level in rat whole brain concentration after 7 days post-treatment at a dose of 30 mg/Kg when given orally; Control 50.5; format: functional
[19] = tested on: Rattus norvegicus; assay: Number of rats protected at a dose of 30 mg/Kg when given oral at 2 hr upon maximal electroshock seizure; Total number of rats = 4; format: functional
[20] = tested on: Mus musculus; assay: Minimum dose required for anticonvulsant activity when given i.p., at 2 hr in mice upon subcutaneous strychnine seizure; format: functional
[21] = species: Rattus norvegicus; assay: Ex vitro percentage inhibition activity against GABA-T enzyme at a concentration of 1.25 uM after 4.5 h; format: functional
[22] = tested on: Mus musculus; assay: Minimum dose required for anticonvulsant activity when given i.p., at 0.5 hr in mice upon subcutaneous pentylenetetrazole seizure; format: functional
[23] = biological target: 4-aminobutyrate aminotransferase, mitochondrial (Rattus norvegicus) (UniProt P50554); assay: In vitro percentage inhibition activity against GABA-T enzyme at a concentration of 0.625 uM after 6 h
[24] = tested on: Rattus norvegicus; assay: Number of rats protected at a dose of 30 mg/Kg when given oral at 4 hr upon maximal electroshock seizure; Total number of rats = 4; format: functional
[25] = biological target: 4-aminobutyrate aminotransferase, mitochondrial (Rattus norvegicus) (UniProt P50554); assay: In vitro percentage inhibition activity against GABA-T enzyme at a concentration of 0.625 uM after 3 h
[26] = biological target: 4-aminobutyrate aminotransferase, mitochondrial (Rattus norvegicus) (UniProt P50554); assay: In vitro percentage inhibition activity against GABA-T enzyme at a concentration of 5 uM after 4.5 h
[27] = biological target: 4-aminobutyrate aminotransferase, mitochondrial (Rattus norvegicus) (UniProt P50554); assay: In vitro percentage inhibition activity against GABA-T enzyme at a concentration of 5 uM after 3 h
[28] = tested on: Rattus norvegicus; assay: Effective dose required for anticonvulsant activity when given orally at 2 h in rat upon maximal electroshock seizure; format: functional; conditions: po
[29] = tested on: Mus musculus; assay: Post treatment activity score for CNS study using a actophotometer at a dose of 100 mg/Kg after 1 hr when given i.p., in mice (No. of animals 6); Control (24h before) 268
[30] = tested on: Rattus norvegicus; assay: Enzymatic activity to assess the increase in level of SGOT at a dose of 30 mg/Kg for 14 days when given p.o., in 6 rats; Control 73.1; format: functional
[31] = biological target: 4-aminobutyrate aminotransferase, mitochondrial (Rattus norvegicus) (UniProt P50554); assay: In vitro percentage inhibition activity against GABA-T enzyme at a concentration of 5 uM after 6 h
[32] = tested on: Mus musculus; assay: Mean sleeping time evaluated for CNS study using the pentobarbital-induced narcosis model at a dose of 100 mg/Kg when given i.p., in mice (No. of animals 6)
[33] = tested on: Mus musculus; assay: Post treatment activity score for CNS study using a actophotometer at a dose of 100 mg/Kg after 0.5 hr when given i.p., in mice (No. of animals 6); Control (24h before) 268
[34] = tested on: Rattus norvegicus; assay: Toxic dose observed for anticonvulsant activity when given orally at 2 hr in rat upon neurotoxicity seizure; format: functional; conditions: po
[35] = tested on: Rattus norvegicus; assay: Enzymatic activity to assess the increase in level of SGPT at a dose of 30 mg/Kg for 14 days when given p.o., in 6 rats; Control 45.0; format: functional
[36] = tested on: Mus musculus; assay: Post treatment immobility time for CNS study using Porsolt's swimpool test at a dose of 100 mg/Kg after 1 hr when given i.p., in mice (No. of animals 6); Control (24h before) 146
[37] = biological target: 4-aminobutyrate aminotransferase, mitochondrial (Rattus norvegicus) (UniProt P50554); assay: In vitro percentage inhibition activity against GABA-T enzyme at a concentration of 1.25 uM after 4.5 h
[38] = biological target: 4-aminobutyrate aminotransferase, mitochondrial (Rattus norvegicus) (UniProt P50554); assay: In vitro percentage inhibition activity against GABA-T enzyme at a concentration of 1.25 uM after 6 h
[39] = biological target: 4-aminobutyrate aminotransferase, mitochondrial (Rattus norvegicus) (UniProt P50554); assay: In vitro percentage inhibition activity against GABA-T enzyme at a concentration of 1.25 uM after 3 h
[40] = tested on: Mus musculus; assay: Minimum dose required for anticonvulsant activity when given i.p., in mice upon neurotoxicity seizure using rotarod test
[41] = tested on: Mus musculus; assay: Post treatment activity score for CNS study using a actophotometer at a dose of 100 mg/Kg after 1 hr when given i.p., in mice (No. of animals 6); Control (24h before) 224
[42] = tested on: Mus musculus; assay: Post treatment activity score for CNS study using a actophotometer at a dose of 100 mg/Kg after 0.5 hr when given i.p., in mice (No. of animals 6); Control (24h before) 224
[43] = tested on: Rattus norvegicus; assay: Toxic dose observed for anticonvulsant activity when given i.p., at 1 h in rat upon neurotoxicity seizure; format: functional; conditions: ip
[44] = tested on: Mus musculus; assay: Post treatment immobility time for CNS study using Porsolt's swimpool test at a dose of 100 mg/Kg after 1 hr when given i.p., in mice (No. of animals 6); Control (24h before) 143
[45] = species: Rattus norvegicus; assay: Ex vitro percentage inhibition activity against GABA-T enzyme at a concentration of 2.5 uM after 6 h; format: functional
[46] = tested on: Mus musculus; assay: Post treatment activity score for CNS study using a actophotometer at a dose of 100 mg/Kg after 1 h when given i.p., in mice (No. of animals 6); Control (24h before) 238
[47] = species: Rattus norvegicus; assay: Ex vitro percentage inhibition activity against GABA-T enzyme at a concentration of 2.5 uM after 4.5 h; format: functional
[48] = tested on: Mus musculus; assay: Post treatment activity score for CNS study using a actophotometer at a dose of 100 mg/Kg after 0.5 hr when given i.p., in mice (No. of animals 6); Control (24h before) 238
[49] = species: Rattus norvegicus; assay: Ex vitro percentage inhibition activity against GABA-T enzyme at a concentration of 2.5 uM after 3 h; format: functional
[50] = tested on: Rattus norvegicus; assay: Effective dose required for anticonvulsant activity when given i.p., at 1 hr in rat upon maximal electroshock seizure; format: functional; conditions: ip

| SMILES | STY seizure [2] [mg/kg] | Activity [4] | Activity [5] | MES [6] [mg/kg] | NT [7] [mg/kg] | Activity [11] | Activity [15] | MES [17] [mg/kg] | Activity [18] | Activity [19] | STY seizure [20] [mg/kg] | PTZ seizure [22] [mg/kg] | Activity [24] | also measured |
| --- | --- | --- | --- | --- | --- | --- | --- | --- | --- | --- | --- | --- | --- | --- |
| Cc1cccc(C)c1NC(=O)N/N=C/c1ccc(N(C)C)cc1 | 100 | 2 | 1 | 100 | 300 | 75.5 ug/100mg of tissue | 2 | 300 | 68.1 ug/100mg of tissue | 3 | 100 | 300 | 4 | ED50 [1]: 18.3 mg/kg; Activity [3]: 207; Inhibition [8]: 0%; Activity [9]: 147; Activity [10]: 124; PI [12]: >13.6; Inhibition [13]: 9%; TD50 [14]: > 250 mg/kg; inhibition [16]: 64%; Inhibition [21]: 0%; inhibition [23]: 0%; inhibition [25]: 0% |
| CN1C(=O)CC(=O)N(c2ccccc2)c2cc(Cl)ccc21 [CLOBAZAM] |  |  |  |  |  | 101 ug/100mg of tissue |  |  | 110 ug/100mg of tissue |  |  |  |  |  |
| Cc1ccc(/C=N/NC(=O)Nc2c(C)cccc2C)cc1 | 100 | 3 | 0 | 100 |  | 90.2 ug/100mg of tissue | 2 | 300 | 100 ug/100mg of tissue | 4 | 100 | 300 | 3 | inhibition [26]: 70%; inhibition [27]: 55%; ED50 [28]: 33.1 mg/kg; Activity [29]: 133; SGOT activity [30]: 70.2 units/mL; Inhibition [8]: 32%; inhibition [31]: 0%; Time [32]: 150 min; PI [12]: >3.62; Inhibition [13]: 48%; Activity [33]: 175; TD50 [34]: > 120 mg/kg; Inhibition [21]: 75%; SGPT activity [35]: 47.3 units/mL; Activity [36]: 225 |
| NNCCc1ccccc1 [PHENELZINE] |  |  |  |  |  |  |  |  |  |  |  |  |  | Inhibition [8]: 25%; Inhibition [13]: 65%; inhibition [37]: 75%; Inhibition [21]: 85%; inhibition [38]: 62%; inhibition [39]: 0% |
| CCCC(CCC)C(=O)O [VALPROIC ACID] |  |  |  |  |  |  |  |  |  |  |  |  |  | NT [40]: 300 mg/kg |
| Cc1cccc(C)c1NC(=O)/N=N/c1c(O)[nH]c2ccc(F)cc12 | 30 | 1 | 1 | 100 | 300 |  | 1 | 300 |  | 1 | 100 | 300 | 3 | Activity [41]: 194; Activity [42]: 204 |
| COc1cc(/C=N/NC(=O)Nc2c(C)cccc2C)ccc1O | 30 | 4 | 3 | 100 |  | 91.2 ug/100mg of tissue | 3 | 300 | 106 ug/100mg of tissue | 3 | 100 | 300 | 4 | inhibition [26]: 56%; inhibition [27]: 0%; TD50 [43]: > 117 mg/kg; Activity [44]: 207; Inhibition [45]: 12%; inhibition [31]: 23%; Activity [46]: 130; Inhibition [47]: 56%; Time [32]: 68 min; PI [12]: >4.4; Activity [48]: 157; Inhibition [49]: 0%; ED50 [50]: 26.2 mg/kg |
| COc1ccc(/C=N/NC(=O)Nc2c(C)cccc2C)cc1 | 30 | 3 | 1 | 100 | 300 |  | 4 | 300 |  | 3 | 100 | 300 | 3 |  |
| Cc1cccc(C)c1NC(=O)N/N=C/c1ccc([N+](=O)[O-])cc1 | 30 | 2 | 1 | 100 | 300 |  | 1 | 300 |  | 1 | 100 | 300 | 1 |  |
| CCC1(c2ccccc2)C(=O)NC(=O)NC1=O [PHENOBARBITAL] |  |  |  |  |  |  |  |  |  |  |  |  |  | Time [32]: 54 min; NT [40]: 100 mg/kg |
| C/C(=N\NC(=O)Nc1c(C)cccc1C)c1ccc([N+](=O)[O-])cc1 | 100 | 2 | 1 | 300 | 300 |  | 2 | 300 |  | 3 | 300 | 300 | 1 |  |
| Cc1cccc(C)c1NC(=O)N/N=C/c1ccccc1 | 30 | 3 | 1 | 100 | 300 |  | 3 | 100 |  | 3 | 100 | 300 | 4 |  |
